According to ChEMBL document CHEMBL1201862, “PubChem BioAssay data set” (2004):
“And” between values parts separate entries of the source, which are not always exact repeats. Equal values may be shown once. Each block holds one molecule with its values, some of them ahead of it. The source made the active and inactive calls.

Columns and labels:
[1] = viability loss in HEK293 cells – cell-based, luminescence, dry powder, set 12, cytotoxicity control, dose response (AID 743354); assay type: functional
Genome polyprotein = Genome polyprotein (dengue virus type 2, UniProt P29990); assay: flavivirus cap methylation enzyme inhibition – biochemical, confirmation dose response, primary screen (AID 588689); assay type: functional
[2] = target: T1, Mannose-6-phosphate isomerase (Homo sapiens, UniProt P34949); assay: MPI enzyme activity inhibition – biochemical, fluorescence intensity, coupled assay, primary screen (AID 1209)
T1 sequence (P34949 whole entry): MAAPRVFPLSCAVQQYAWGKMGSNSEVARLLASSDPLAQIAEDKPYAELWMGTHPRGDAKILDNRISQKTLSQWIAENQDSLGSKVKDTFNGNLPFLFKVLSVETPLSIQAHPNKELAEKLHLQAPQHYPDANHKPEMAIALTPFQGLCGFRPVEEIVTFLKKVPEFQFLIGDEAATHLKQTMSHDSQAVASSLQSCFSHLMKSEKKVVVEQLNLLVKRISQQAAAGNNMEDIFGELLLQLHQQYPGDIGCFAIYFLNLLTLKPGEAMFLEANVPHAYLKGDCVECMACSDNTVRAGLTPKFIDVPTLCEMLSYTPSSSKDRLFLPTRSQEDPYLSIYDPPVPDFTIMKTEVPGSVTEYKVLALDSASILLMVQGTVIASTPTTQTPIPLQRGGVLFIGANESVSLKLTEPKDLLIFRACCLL

Vero [3] = assay: viability of Vero cells under compound – cytotoxicity control for flavivirus capping enzyme inhibitors (AID 588742); assay type: functional; settings: Chlorocebus sabaeus
[4] = Trypanosoma cruzi growth suppression in host cells – NIH3T3 host cells, beta-gal luminescence, confirmation (AID 2044); assay type: functional, cell-based;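 also: intracellular parasites grown in NIH/3T3 mouse fibroblasts as host cells; luminescent beta-galactosidase reporter signal from transgenic T. cruzi replicating inside host cells; inhibitors lower the luminescence signal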
[5] = target: T1, Mannose-6-phosphate isomerase; assay: MPI inhibition at elevated mannose 6-phosphate – biochemical, fluorescence intensity, high mannose 6-phosphate, primary screen (AID 1220)
[6] = NIH3T3 cell viability loss – ATP luminescence, mouse fibroblasts, counter-screen, dose response (AID 2010); assay type: functional, cell-based;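 also: cells exposed to compound for about 90 hours before reading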
[7] = target: Induced myeloid leukemia cell differentiation protein Mcl-1 (Homo sapiens, UniProt Q07820); assay: Mcl-1 Noxa peptide disruption concentration-response – biochemical, TR-FRET, dose response (AID 1417); assay type: functional
[8] = viability loss in HeLa cells – cytotoxicity control for MgcRacGAP inhibitor project, dose response (AID 624300); assay type: functional
[9] = Potency on glucagon-like peptide 1 release, dose-response in NCI-H716 cell line, half maximal inhibitory concentration (AID 1117344); assay type: functional, cell-based
[10] = rise of 2N DNA cells, HeLa – IC50, dose response (AID 1117349); assay type: functional, cell-based
[11] = SNU-C1 cell viability reduction, dose response, CellTiter-Glo luminescence (AID 1117323); assay type: functional, cell-based
Cytochrome P450 2C9 = Cytochrome P450 2C9 (Homo sapiens, UniProt P11712)
[12] = CellTiter-Glo luminescence survival assay, SW480 colon tumor line, concentration-response curve, half-maximal inhibitory concentration (AID 1117338); assay type: functional
[13] = glucagon-like peptide-1 release potency in STC-1, concentration-response, half-maximal inhibitory concentration in the STC-1 line (AID 1117345); assay type: functional, cell-based
[14] = cytotoxicity toward HCT116 cells – cell-based, CellTiter-Glo luminescence, IC50, dose response (AID 1117332); assay type: functional; settings: HCT-116
[15] = cytotoxicity toward Colo320 cells – cell-based, CellTiter-Glo luminescence, IC50, dose response (AID 1117334); assay type: functional; settings: COLO 320
[16] = target: Eukaryotic translation initiation factor 4E (Mus musculus, UniProt P63073); assay: blockers of eIF4G binding by eIF4E – biochemical, TR-FRET, dose response (AID 855); assay type: functional;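 also: potency for disrupting eIF4E binding to eIF4GI seen as loss of FRET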
Cytochrome P450 1A2 = target: T2, Cytochrome P450 1A2 (Homo sapiens, UniProt P05177);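 also: PubChem cytochrome P450 panel assay, CYP1A2 panel member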
T2 sequence (P05177 whole entry): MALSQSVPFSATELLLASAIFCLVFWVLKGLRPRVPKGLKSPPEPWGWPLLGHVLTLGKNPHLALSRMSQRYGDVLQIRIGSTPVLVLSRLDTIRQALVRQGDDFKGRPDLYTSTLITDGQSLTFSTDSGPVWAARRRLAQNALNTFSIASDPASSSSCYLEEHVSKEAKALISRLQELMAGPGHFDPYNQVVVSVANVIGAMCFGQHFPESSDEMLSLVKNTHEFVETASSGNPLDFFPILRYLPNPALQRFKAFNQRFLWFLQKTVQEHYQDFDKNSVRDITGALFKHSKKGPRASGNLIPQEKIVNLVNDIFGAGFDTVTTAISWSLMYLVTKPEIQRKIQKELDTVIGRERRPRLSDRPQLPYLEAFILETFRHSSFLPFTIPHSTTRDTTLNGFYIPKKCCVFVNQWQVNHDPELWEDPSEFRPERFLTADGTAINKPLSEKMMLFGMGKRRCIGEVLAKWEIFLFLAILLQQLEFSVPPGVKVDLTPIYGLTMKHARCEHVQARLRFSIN

[17] = rise of 4N DNA cells, HeLa – IC50, dose response (AID 1117351); assay type: functional, cell-based
[18] = RKO cell viability reduction, dose response, CellTiter-Glo luminescence (AID 1117322); assay type: functional
[19] = cytotoxicity toward HT-29 cells – cell-based, CellTiter-Glo luminescence, IC50, dose response (AID 1117330); assay type: functional
[20] = Reduced DLD-1 viability, concentration-response, CellTiter-Glo luminescence (AID 1117352); assay type: functional
[21] = target: Sphingosine 1-phosphate receptor 2 (Homo sapiens, UniProt O95136); assay: Dose Response Cell Based Assay for Agonists of the S1P2 Receptor. [Related pubchem assays: 729, 736, 843 ]; assay type: functional
[22] = Dd2 parasite growth inhibition in erythrocytes – SYBR Green, dry powder samples, set 9, dose response (AID 1159568); assay type: functional, cell-based
[23] = growth inhibition of yeast DHODH-expressing 3D7 parasites – SYBR Green, dry powder samples, dose response (AID 1159570); assay type: functional, cell-based;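 also: parasite growth measured after 72 hours of compound exposure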
[24] = Plasmodium falciparum Dd2 Sybr green parasite growth Measured in Cell-Based and Microorganism Combination System Using Plate Reader - 2153-01_Inhibitor_Dose_DryPowder_Activity_Set3.; assay type: functional
[25] = Dd2 malaria parasite growth inhibition potency – SYBR Green, dry powder samples, dose response (AID 1159566); assay type: functional, cell-based;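 also: potency for growth inhibition with lower SYBR green DNA signal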
[26] = growth inhibition of PfATP4-mutant resistant parasites – NITD609-resistant line, SYBR Green, dry powder, dose response (AID 1159571); assay type: functional, cell-based;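 also: parasites synchronized at ring stage by sorbitol before testing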
[27] = toxicity to human HepG2 hepatoma cells – cell-based, plate reader, dry powder samples, cytotoxicity control, dose response (AID 1159569); assay type: functional;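 also: inhibitor potency with signal falling toward the positive control level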
[28] = P. falciparum Dd2 growth inhibitors, dose response, SYBR Green, cherry-picked samples (AID 1159567); assay type: functional, cell-based
14-3-3 protein gamma = 14-3-3 protein gamma (Homo sapiens, UniProt P61981); assay: modulators of 14-3-3 gamma client binding – dose response (AID 711); assay type: functional
Vero [29] = assay: Vero cell viability after compound exposure – synthesized analogs, set II, cytotoxicity control for West Nile virus antiviral project, SAR follow-up (AID 2402); assay type: functional; settings: Chlorocebus sabaeus
Cytochrome P450 3A4 = Cytochrome P450 3A4 (Homo sapiens, UniProt P08684);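 also: CYP3A4 tested as one member of a cytochrome P450 panel screen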
[30] = IC50 of insulin release inhibition, rat insulinoma INS-1E line, 5 mM glucose, cell-based (AID 1117331); assay type: functional
Protein Tat = Protein Tat (Human immunodeficiency virus type 1 group M subtype B (isolate HXB2)(HIV-1), UniProt P04608); assay type: functional;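 also: tat binding to TAR RNA read out by fluorescence polarization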
[31] = viability loss in human Jurkat cells – cell-based, luminescence, cytotoxicity control for P. falciparum gametocyte viability project, dose response (AID 1117277); assay type: functional;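 also: potency reflects loss of cellular ATP meaning fewer viable cells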
[32] = viability inhibitors of stage V gametocytes – luminescence, dose response (AID 1117278); assay type: functional, cell-based;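 also: gametocytes exposed to compound for 24 hours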
Paired box protein Pax-8 = Paired box protein Pax-8 (Homo sapiens, UniProt Q06710); assay: PAX8 transcriptional activity inhibition in RMG-I – RMG-I cells, luciferase, cherry-pick, dose response (AID 687027); assay type: functional, cell-based;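 also: luciferase reporter driven by Pax8 target thyroperoxidase promoter measured by SteadyGlo luminescence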
[33] = OVCAR8 cell viability loss – plate reader, dry powder samples, PAX8 project, dose response (AID 743197); assay type: functional, cell-based; settings: OVCAR-8
[34] = activation of miR-122 Renilla sensor silencing – cell-based, Huh7 psiCHECK-miR122, Renilla luciferase, cherry-picked, dose response (AID 651956); assay type: functional;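 also: huh7 hepatoma cells stably carrying a psiCHECK-2 miR-122 sensor plasmid; renilla luciferase signal reporting endogenous miR-122 activity after 48 h compound exposure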
[35] = general mammalian cell viability loss – inhibitor set, cherry-pick, set 2, cytotoxicity control for miR-122 modulator project, dose response (AID 720697); assay type: functional, cell-based
[36] = viability loss in A549 lung cells – cell-based, 24 h, CellTiter-Glo luminescence, cherry-picks, cytotoxicity control, dose response (AID 1053115); assay type: functional; settings: A549, 24 h
[37] = lung carcinoma cell viability loss – CellTiter-Glo luminescence, dry powder, set 17, dose response (AID 1117284); assay type: functional, cell-based; settings: A549
[38] = general mammalian cell viability loss – activator set, cherry-pick, cytotoxicity control for miR-122 modulator project, dose response (AID 720690); assay type: functional, cell-based;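 also: HEK293T human cells scored for general mammalian cytotoxicity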
[39] = viability of uninfected HEp-2 cells – cell-based, HTS, cytotoxicity control for RSV inhibitor project, dose response (AID 2410); assay type: functional; settings: human respiratory syncytial virus
[40] = viability loss in Vero cells – cytotoxicity control for Vif-APOBEC3G degradation inhibitor project, dose response (AID 1117358); assay type: functional; settings: Vero

Induced myeloid leukemia cell differentiation protein Mcl-1, sequence (Q07820 whole entry): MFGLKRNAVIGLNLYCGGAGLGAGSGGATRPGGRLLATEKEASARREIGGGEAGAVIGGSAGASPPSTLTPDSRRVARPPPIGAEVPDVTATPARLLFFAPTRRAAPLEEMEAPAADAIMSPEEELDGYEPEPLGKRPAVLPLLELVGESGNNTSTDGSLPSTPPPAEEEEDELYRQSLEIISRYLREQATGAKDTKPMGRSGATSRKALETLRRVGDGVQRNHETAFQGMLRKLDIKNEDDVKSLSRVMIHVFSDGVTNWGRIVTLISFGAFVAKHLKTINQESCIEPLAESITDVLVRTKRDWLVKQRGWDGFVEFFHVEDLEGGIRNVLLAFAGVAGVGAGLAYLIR
Cytochrome P450 2C9, sequence (P11712 whole entry): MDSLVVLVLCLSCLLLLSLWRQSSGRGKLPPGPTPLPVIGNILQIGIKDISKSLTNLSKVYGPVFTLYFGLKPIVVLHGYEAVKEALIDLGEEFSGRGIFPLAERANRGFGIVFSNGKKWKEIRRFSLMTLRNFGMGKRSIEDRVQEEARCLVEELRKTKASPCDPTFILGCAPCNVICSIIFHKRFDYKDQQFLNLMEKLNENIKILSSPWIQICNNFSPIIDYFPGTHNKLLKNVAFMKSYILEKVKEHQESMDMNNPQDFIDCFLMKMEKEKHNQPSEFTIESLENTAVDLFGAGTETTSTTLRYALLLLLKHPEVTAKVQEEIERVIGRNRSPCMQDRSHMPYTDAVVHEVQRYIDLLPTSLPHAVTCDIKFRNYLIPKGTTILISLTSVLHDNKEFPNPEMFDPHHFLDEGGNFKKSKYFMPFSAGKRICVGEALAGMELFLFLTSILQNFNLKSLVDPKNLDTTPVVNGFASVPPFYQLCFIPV
14-3-3 protein gamma, sequence (P61981 whole entry): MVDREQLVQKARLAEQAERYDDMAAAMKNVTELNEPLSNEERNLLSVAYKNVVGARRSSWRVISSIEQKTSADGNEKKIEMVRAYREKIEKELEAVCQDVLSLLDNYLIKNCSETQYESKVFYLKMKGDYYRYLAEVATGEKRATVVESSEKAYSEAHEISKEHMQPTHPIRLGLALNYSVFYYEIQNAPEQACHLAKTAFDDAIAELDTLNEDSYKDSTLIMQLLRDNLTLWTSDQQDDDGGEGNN
Sphingosine 1-phosphate receptor 2, sequence (O95136 whole entry): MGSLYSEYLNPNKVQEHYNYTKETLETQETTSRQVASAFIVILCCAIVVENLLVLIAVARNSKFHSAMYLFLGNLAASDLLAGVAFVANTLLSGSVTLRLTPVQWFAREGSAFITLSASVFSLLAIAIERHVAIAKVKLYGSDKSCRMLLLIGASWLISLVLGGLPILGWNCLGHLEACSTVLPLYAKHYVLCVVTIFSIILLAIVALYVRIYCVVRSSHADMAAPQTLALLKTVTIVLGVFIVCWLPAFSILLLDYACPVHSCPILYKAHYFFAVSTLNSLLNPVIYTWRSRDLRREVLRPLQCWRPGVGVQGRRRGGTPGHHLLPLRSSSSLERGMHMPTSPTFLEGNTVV
Paired box protein Pax-8, sequence (Q06710 whole entry): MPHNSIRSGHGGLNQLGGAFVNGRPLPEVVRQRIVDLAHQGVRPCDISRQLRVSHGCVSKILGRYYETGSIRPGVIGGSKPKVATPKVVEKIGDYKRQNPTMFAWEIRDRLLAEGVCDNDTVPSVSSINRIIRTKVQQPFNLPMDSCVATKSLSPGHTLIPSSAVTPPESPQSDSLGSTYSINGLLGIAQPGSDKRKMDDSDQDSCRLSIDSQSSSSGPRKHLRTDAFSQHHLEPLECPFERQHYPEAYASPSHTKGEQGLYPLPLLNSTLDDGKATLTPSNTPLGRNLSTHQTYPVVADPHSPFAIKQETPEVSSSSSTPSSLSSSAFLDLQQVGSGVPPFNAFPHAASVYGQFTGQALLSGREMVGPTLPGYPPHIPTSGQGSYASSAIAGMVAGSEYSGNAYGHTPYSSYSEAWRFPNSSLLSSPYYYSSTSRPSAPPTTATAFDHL
Cytochrome P450 3A4, sequence (P08684 whole entry): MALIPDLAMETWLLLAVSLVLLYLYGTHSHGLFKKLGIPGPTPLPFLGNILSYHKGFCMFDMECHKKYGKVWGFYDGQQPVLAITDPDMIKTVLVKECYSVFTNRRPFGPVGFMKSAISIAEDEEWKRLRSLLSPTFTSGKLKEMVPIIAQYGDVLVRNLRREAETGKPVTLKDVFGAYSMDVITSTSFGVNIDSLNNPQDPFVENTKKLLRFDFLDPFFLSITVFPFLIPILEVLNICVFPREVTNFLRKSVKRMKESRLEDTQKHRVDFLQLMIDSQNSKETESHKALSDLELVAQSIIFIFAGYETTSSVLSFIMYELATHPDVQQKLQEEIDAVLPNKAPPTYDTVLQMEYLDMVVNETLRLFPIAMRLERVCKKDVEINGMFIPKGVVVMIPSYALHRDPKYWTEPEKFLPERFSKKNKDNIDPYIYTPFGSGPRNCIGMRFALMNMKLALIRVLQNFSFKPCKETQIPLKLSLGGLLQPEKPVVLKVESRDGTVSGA
Genome polyprotein, sequence (P29990 2492-3391 limits assumed): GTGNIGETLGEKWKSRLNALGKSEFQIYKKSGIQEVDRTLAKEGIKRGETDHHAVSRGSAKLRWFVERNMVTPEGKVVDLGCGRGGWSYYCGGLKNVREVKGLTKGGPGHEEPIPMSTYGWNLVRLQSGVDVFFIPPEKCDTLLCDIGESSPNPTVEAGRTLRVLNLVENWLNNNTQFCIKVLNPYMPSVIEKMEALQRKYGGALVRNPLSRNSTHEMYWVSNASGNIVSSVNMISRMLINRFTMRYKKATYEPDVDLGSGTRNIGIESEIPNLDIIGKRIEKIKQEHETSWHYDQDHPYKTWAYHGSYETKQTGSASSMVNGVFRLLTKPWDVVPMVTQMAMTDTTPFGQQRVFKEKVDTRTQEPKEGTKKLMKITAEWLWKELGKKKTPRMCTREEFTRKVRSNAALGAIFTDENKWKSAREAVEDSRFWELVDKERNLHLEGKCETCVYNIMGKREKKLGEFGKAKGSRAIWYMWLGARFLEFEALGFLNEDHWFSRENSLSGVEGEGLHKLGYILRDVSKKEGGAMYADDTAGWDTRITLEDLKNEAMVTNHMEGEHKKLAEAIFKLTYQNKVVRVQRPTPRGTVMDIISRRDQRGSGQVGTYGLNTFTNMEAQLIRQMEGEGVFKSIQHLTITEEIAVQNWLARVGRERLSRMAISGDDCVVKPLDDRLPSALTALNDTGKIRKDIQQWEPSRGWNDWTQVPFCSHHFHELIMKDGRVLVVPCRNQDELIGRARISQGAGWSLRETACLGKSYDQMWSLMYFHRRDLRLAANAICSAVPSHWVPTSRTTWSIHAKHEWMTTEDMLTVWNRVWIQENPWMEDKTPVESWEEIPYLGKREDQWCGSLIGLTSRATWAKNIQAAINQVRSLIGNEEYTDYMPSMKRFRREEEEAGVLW
Protein Tat, sequence (P04608 whole entry): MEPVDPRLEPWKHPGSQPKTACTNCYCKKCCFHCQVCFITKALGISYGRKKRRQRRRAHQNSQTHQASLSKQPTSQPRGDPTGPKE
Eukaryotic translation initiation factor 4E, sequence (P63073 whole entry): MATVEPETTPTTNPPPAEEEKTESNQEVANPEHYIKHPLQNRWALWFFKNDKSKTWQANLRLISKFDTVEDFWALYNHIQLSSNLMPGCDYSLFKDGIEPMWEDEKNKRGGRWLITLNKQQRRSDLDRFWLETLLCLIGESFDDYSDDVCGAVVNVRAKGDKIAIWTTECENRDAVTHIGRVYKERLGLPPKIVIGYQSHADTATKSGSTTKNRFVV

Structure (SMILES): CC(=O)c1ccc(N2CCN(C(=O)c3ccccc3F)CC2)cc1
- AC50 [1]: > 52 µM (inactive)

Structure (SMILES): CCOc1c(Cl)cc(CNc2ccc(N3CCCC3)cc2)cc1OC
- IC50 (Genome polyprotein): 93.2 µM (active)
- IC50 [2]: 3.93 µM (active)
- CC50 (Vero [3]): 27.8 µM (active)
- EC50 [4]: 4.98 µM (active)
- IC50 [5]: 37.7 µM (active)
- EC50 [6]: > 60 µM (not active)
- IC50 [7]: 2.69 µM (active)
- CC50 [8]: 100 µM (active)

Structure (SMILES): Cc1cc2c(C(C)C)c(O)c(O)c(C=O)c2c(O)c1-c1c(C)cc2c(C(C)C)c(O)c(O)c(C=O)c2c1O [GOSSYPOL]
- IC50 [9]: 23.4 µM (inactive)
- IC50 [10]: > 10 µM (inactive)
- IC50 [11]: 0.354 µM (active)
- AC50 (Cytochrome P450 2C9): 31.6 µM (inconclusive) and 15.8 µM (inconclusive)
- IC50 [12]: 0.956 µM (active)
- IC50 [13]: > 40 µM (inactive)
- IC50 [14]: 0.784 µM (active)
- IC50 [15]: 1.38 µM (active)
- IC50 [16]: > 64 µM (inactive)
- AC50 (Cytochrome P450 1A2): 15.8 µM (inconclusive) and 39.8 µM (inconclusive)
- IC50 [17]: > 10 µM (inactive)
- IC50 [18]: 0.916 µM (active)
- IC50 [19]: 1.42 µM (active)
- IC50 [20]: 0.834 µM (active)
- IC50 [7]: 1.52 µM (active)

- EC50 [21]: > 50 µM (not active)
Structure (SMILES): COCCNC(=O)CN1CCN(C(c2ccccc2)c2ccccc2)CC1

Structure (SMILES): COc1ccccc1CN1C[C@@H](C)[C@H](OC)CN(C)C(=O)c2ccc(NC(=O)Nc3ccccc3OC)cc2OC[C@H]1C
- AC50 [22]: 0.116 µM (active)
- AC50 [23]: 2.1 µM (active)
- AC50 [24]: 0.189 µM (active)
- AC50 [25]: 0.0185 µM (active)
- AC50 [26]: 0.163 µM (active)
- AC50 [27]: > 100 µM (inactive)
- AC50 [28]: < 0.3 µM (active)

- IC50 (14-3-3 protein gamma): 25.6 µM (active)
Structure (SMILES): O=C(Cn1cc2c(n1)CCCC2)NCc1ccccn1

Structure (SMILES): O=C(CSc1nc2cccc(F)c2c(=O)n1-c1ccccc1)Nc1ccc2c(c1)CCC2
- CC50 (Vero [29]): > 200 µM (active)

Structure (SMILES): O=C(CCCN1CCC(O)(c2ccc(Br)cc2)CC1)c1ccc(F)cc1 [BROMPERIDOL]
- AC50 (Cytochrome P450 3A4): inconclusive
- IC50 [30]: > 33.3 µM (inactive)
- AC50 (Cytochrome P450 1A2): 5.01 µM (inconclusive)

- IC50 (Protein Tat): > 100 µM (active)
Structure (SMILES): CCOc1ccc(-n2c(Cc3cc(O)nc(O)n3)nnc2SCC(=O)NC2CCCC2)cc1

Structure (SMILES): COc1ccc(C2CC(c3cccs3)=NN2C(=O)CSc2nnc(N)s2)cc1OC (centres undefined)
- IC50 [31]: > 83.3 µM (inactive)
- IC50 [32]: > 109 µM (inactive)

Structure (SMILES): C[C@H](O)C#Cc1ccc2c(c1)O[C@@H](CN(C)Cc1ccc(-c3ccccc3)cc1)[C@@H](C)CN([C@@H](C)CO)S2(=O)=O
- AC50 (Paired box protein Pax-8): 11.5 µM (active)
- AC50 [33]: > 70 µM (inactive)
- AC50 [34]: 14.7 µM (active)
- AC50 [35]: < 0.195 µM (active)
- AC50 [36]: > 60 µM (inactive)
- AC50 [37]: 22.6 µM (active)
- AC50 [38]: 11.2 µM (active)

Structure (SMILES): Cn1nc(C(F)(F)F)c(C#N)c1N1CCN(c2ccc(F)cc2)CC1
- CC50 [39]: 8.85 µM (active)
- CC50 [40]: > 40 µM (active)
